Experimental data reported in publication PMC12518639, “Apomorphine is a novel necroptosis inhibitor targeting mixed lineage kinase domain-like protein oligomerization” (Cell Death Discovery, 2025).

How the values were obtained:
[1] = tested on: APAP-induced liver injury in MLKL−/− C57BL/6 mice; assay: APAP-induced liver injury in MLKL knockout mice; type: in vivo, mouse; conditions: 15 mg/kg, 400 mg/kg APAP, 24 h
Experimental: For APAP-induced liver injury, male BALB/c mice aged 6–8 weeks (Central Lab Animal Inc., S. Korea) and male MLKL^–/– C57BL/6 mice aged 6–8 weeks (Cyagen, Santa Clara, CA, USA) were administered acetaminophen (APAP; 400–500 mg/kg, 103-90-2, Sigma-Aldrich) by i.p. injection to induce liver injury in the presence or absence of APO after 12 h of fasting. After 24 h, the mice were sacrificed to obtain liver tissues for further analysis.
For liver tissue preparation, each liver was perfused with DPBS and then fixed in 4% paraformaldehyde (PFA; PC2031-050-00, Biosesang, S. Korea) before embedding in paraffin. Sections were stained with H&E, and necrotic areas were quantified using ImageJ by calculating the proportion of pale or unstained regions relative to the total tissue area. Mouse liver sections were subjected to IHC staining to assess distinct forms of cell death: an anti-p-MLKL antibody (MA5-32752, Thermo Fisher Scientific) to evaluate p-MLKL localization (necroptosis), a TUNEL assay kit (4810-30-K, R&D Systems) for apoptosis, and an anti-4-HNE antibody (GTX01087, GeneTex) for ferroptosis.
Fig. S6 APO reduces liver damage in MLKL^–/– mice. […] Necrotic areas were quantified as the proportion of unstained regions relative to the total tissue area. […] (D) Serum AST and ALT levels were evaluated to assess liver injury after APAP injection. […]

THP-1 cells = assay: PI uptake assay after TBZ treatment; type: cell-based; conditions: Homo sapiens; THP-1, TBZ, 8 h
Experimental: To identify potential inhibitors of the necroptosis pathway targeting MLKL or the process of p-MLKL pore formation on the membrane, we screened a library of 2150 compounds, including FDA-approved drugs and those in phase 1–3 clinical trials, using THP-1-HMGB1-Lucia™ cells expressing the HMGB1-luciferase fusion protein. The cells were treated with a necroptosis-inducing mixture containing TNF-α, BV6, and Z-VAD-FMK (TBZ) in addition to the compound library (Fig. 1A). The supernatants were harvested to measure luciferase activities for necroptosis. The luciferase activities of cell supernatants treated with TBZ alone were considered as the maximum release (100%) of HMGB1-luciferase. NEC-1, a known RIP1 inhibitor used in both humans and mice, was used as a positive control. An initial screening was performed to identify compounds that reduced luciferase activity to within 20% of the TBZ-treated supernatant, and 72 compounds (S1–S72) were selected (Table S1). Among these compounds were four known necroptosis inhibitors of pazopanib (S10), bardoxolone (S16), ponatinib (S17), and dabrafenib (S31), indicating the reliability of this screening assay. […]
PI uptake assays were performed in triplicate to evaluate pore formation on the plasma membrane. […] Fluorescence was recorded using a Varioskan Flash 3001 plate reader (Thermo Fisher Scientific, Waltham, MA, USA).

IC50 (THP-1 cells) | Structure (SMILES) | hepatic damage (H&E, ALT, AST, TUNEL, 4-HNE) [1]
– | CN1CCc2cccc3c4c(cc1c23)C=CC(=O)C4=O [Ox-APO] | significantly reduced
5.7 µM | CN1CCc2cccc3c2[C@@H]1Cc1ccc(O)c(O)c1-3 [S62, (6aS)-6-methyl-5,6,6a,7-tetrahydro-4H-dibenzo[de,g]quinoline-10,11-diol] | –
